Patent US20100130738A1 (priority 2007, published 2010)

How the values were obtained:
[1] = target: T1, PDE3A catalytic domain (PDE3Acat) (Homo sapiens, UniProt Q14432); test: Phosphodiesterase inhibitory activity, recombinant PDE3Acat, [3H]cAMP; assay type: biochemical; details: 30° C. 20 minutes, read-out: IC50 (μmol/L) PDE3
T1 construct: isolate the cDNA of a PDE3A catalytic domain; made in house; host or cells: Sf9 insect cells (baculovirus, Bac-to-Bac / Gateway)

PDE4Bcat = target: T2, PDE4Bcat (Homo sapiens, UniProt Q07343); test: Phosphodiesterase inhibitory activity, recombinant PDE4Bcat, [3H]cAMP; assay type: biochemical; details: 30° C. 20 minutes, read-out: IC50 (μmol/L) PDE4
T2 construct: made in house; host or cells: Sf9 insect cells (baculovirus, Bac-to-Bac / Gateway)
T2 sequence (Q07343 330-659 limits assumed): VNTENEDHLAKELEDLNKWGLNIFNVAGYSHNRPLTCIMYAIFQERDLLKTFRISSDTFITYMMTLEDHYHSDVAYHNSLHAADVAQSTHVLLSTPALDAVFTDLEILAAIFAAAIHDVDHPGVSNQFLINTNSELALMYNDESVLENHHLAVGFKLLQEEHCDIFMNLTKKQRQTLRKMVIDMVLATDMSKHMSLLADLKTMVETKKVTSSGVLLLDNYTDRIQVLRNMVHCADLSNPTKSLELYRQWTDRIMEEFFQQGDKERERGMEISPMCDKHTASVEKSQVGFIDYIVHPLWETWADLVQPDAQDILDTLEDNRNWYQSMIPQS

[2] = system: histamine-induced bronchoconstriction in guinea pigs; test: Histamine-induced bronchoconstriction reaction in guinea pigs; assay type: in vivo, guinea pig; details: Cavia porcellus, iv, 0.5 min, compound 0.3 mg/kg i.v., measured 30 seconds after administration, histamine 12.5 μg/kg i.v., read-out: Inhibition rate (histamine-induced bronchoconstriction)
Method: Guinea pigs were anesthetized with pentobarbital (30 mg/kg, i.p.). A cannula for intravenous administration, a cannula for collecting blood and measuring blood pressure, and a tracheal cannula were inserted into the left external jugular vein, right internal carotid artery, and trachea, respectively. The guinea pigs were maintained on artificial respiration under conditions of 60 times/min and 10 mL/kg/stroke. The overflowing air from the side branch of the tracheal cannula was measured by a bronchospasm transducer (Ugo-Basile) and recorded on a computer via Power Lab (ADInstruments Japan). The guinea pigs were immobilized with gallamine (10 mg/kg, i.v.), and histamine (12.5 μg/kg, i.v.) was administered at 10-minute intervals. After the histamine-induced bronchoconstriction became stable, the compound (0.3 mg/kg, i.v.) was administered. The histamine-induced bronchoconstriction reaction was measured 30 seconds after the compound administration to examine the bronchoconstriction inhibitory activity of the compound. The bronchoconstriction was recorded as the airflow value, and the results were represented by the ratio of the maximum value of the histamine-induced airflow 30 seconds after administration to the maximum value of the airflow before administration. Also, the test compounds dissolved in DMSO were used. Further, the indications were as follows: inhibition rate≧90% (+++), 90%>inhibition rate≧80% (++), and 80%>inhibition rate≧60% (+).

[3] = system: LPS acute inflammation model in rats; test: LPS acute inflammation model in rats (total leukocytes in BALF); assay type: in vivo, rat; details: 10 mg/kg orally one hour before LPS inhalation, BALF 3 hours after LPS inhalation
Method: 10 mg/kg of the compounds were orally administered to rats one hour before inhalation of a lipopolysaccharide from E. coli serotype 055:B5 (LPS), and the rats were made to inhale 50 ml of the LPS solution nebulized using a nebulizer for 30 minutes. Then, 3 hours after LPS inhalation, the rats were euthanized with 20% urethane (5 ml/rat, i.p.). 5 ml of physiological saline for bronchoalveolar lavage was injected into the bronchial tubes and alveoli through the airway, and the bronchial tubes and alveoli were washed three times using a 5 mL syringe. This operation was repeated twice, and the solution was collected as bronchoalveolar lavage fluid (BALF). The collected BALF was centrifuged at 1200 rpm and 4° C. for 10 minutes (Hirtachi; himac CR 5 DL). The pellet was re-suspended in 10 ml of a 0.1% bovine serum albumin-physiological saline, and an equivalent amount of Turk's solution was added thereto to stain leukocytes. The total number of leukocytes was counted under a microscope to calculate the inhibition rate. Further, the indications were as follows: inhibition rate≧80% (+++), 80%≧inhibition rate≧60% (++), and 60%>inhibition rate≧40% (+).

T1 sequence (Q14432 674-1093 limits assumed): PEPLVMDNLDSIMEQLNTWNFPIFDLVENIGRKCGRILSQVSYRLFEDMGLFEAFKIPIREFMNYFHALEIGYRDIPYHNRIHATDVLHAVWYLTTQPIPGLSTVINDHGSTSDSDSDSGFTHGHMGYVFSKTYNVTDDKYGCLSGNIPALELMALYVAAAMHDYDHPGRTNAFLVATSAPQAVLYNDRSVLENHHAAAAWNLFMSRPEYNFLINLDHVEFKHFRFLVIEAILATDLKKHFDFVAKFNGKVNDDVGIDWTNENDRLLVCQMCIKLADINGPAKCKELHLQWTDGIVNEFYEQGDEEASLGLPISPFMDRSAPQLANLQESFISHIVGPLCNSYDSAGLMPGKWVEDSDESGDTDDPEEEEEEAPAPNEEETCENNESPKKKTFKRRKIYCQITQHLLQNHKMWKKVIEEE

Structure (SMILES)	IC50 [1]	IC50 (PDE4Bcat)	inhibition in vivo at 0.3 mg/kg [2]	Inhibition rate (total number of leukocytes in BALF) ([3]; 10 mg/kg)	Inhibition rate (total number of leukocytes in BALF) [3]
CCc1ccc2c(C3=NN(CCCCOc4ccc(C5=NNC(=O)CC5C)cc4F)C(=O)C3(C)C)ccc(OC)c2n1 (single isomer, unassigned; (+)) [Example 206, (+)-5-(2-Ethyl-8-methoxyquinolin-5-yl)-2-[4-[2-fluoro-4-(4-methyl-6-oxo-1,4,5,6-tetrahydropyridazin-3-yl)phenoxy]butyl]-4,4-dimethyl-2,4-dihydro-pyrazol-3-one]	0.1 to 1 µmol/L	0.01 to 0.1 µmol/L	–	–	+ (60%>inhibition rate≧40%)
CCc1ccc2c(C3=NN(CCCCOc4ccc(C5=NNC(=O)CC5C)c(F)c4F)C(=O)C3(C)C)ccc(OC)c2n1 (stereo not shown) [Example 209, 5-(2-Ethyl-8-methoxyquinolin-5-yl)-2-[4-[2,3-difluoro-4-(4-methyl-6-oxo-1,4,5,6-tetrahydropyridazin-3-yl)phenoxy]butyl]-4,4-dimethyl-2,4-dihydro-pyrazol-3-one]	< 0.01 µmol/L	0.01 to 0.1 µmol/L	≥ 90%	–	+++ (inhibition rate≧80%)
CCc1ccc2c(C3=NN(CCCCOc4ccc(C5=NNC(=O)CC5C)cc4F)C(=O)C3(C)C)ccc(OC)c2n1 (single isomer, unassigned; (-)) [Example 207, (−)-5-(2-ethyl-8-methoxyquinolin-5-yl)-2-[4-[2-fluoro-4-(4-methyl-6-oxo-1,4,5,6-tetrahydropyridazin-3-yl)phenoxy]butyl]-4,4-dimethyl-2,4-dihydro-pyrazol-3-one]	< 0.01 µmol/L	0.01 to 0.1 µmol/L	≥ 90%	–	+ (60%>inhibition rate≧40%)
COc1ccc(C2=NN(CCCCOc3ccc(C4=NNC(=O)CC4C)c(F)c3F)C(=O)C2(C)C)c2cccnc12 (stereo not shown) [Example 214, 2-[4-[2,3-Difluoro-4-(4-methyl-6-oxo-1,4,5,6-tetrahydropyridazin-3-yl)phenoxy]butyl]-5-(8-methoxyquinolin-5-yl)-4,4-dimethyl-2,4-dihydro-pyrazol-3-one]	< 0.01 µmol/L	0.01 to 0.1 µmol/L	≥ 90%	–	–

Now from value to compound, other results behind:

IC50 [1]	IC50 (PDE4Bcat)	Structure (SMILES)	inhibition in vivo at 0.3 mg/kg [2]	Inhibition rate (total number of leukocytes in BALF) ([3]; 10 mg/kg)	Inhibition rate (total number of leukocytes in BALF) [3]
< 0.01 µmol/L	0.01 to 0.1 µmol/L	CCc1ccc2c(C3=NN(CCCCOc4ccc(C5=NNC(=O)CC5C)c(F)c4F)C(=O)C3(C)C)ccc(OC)c2n1 (single isomer, unassigned; (-)) [Example 211, (−)-5-(2-ethyl-8-methoxyquinolin-5-yl)-2-[4-[2,3-difluoro-4-(4-methyl-6-oxo-1,4,5,6-tetrahydropyridazin-3-yl)phenoxy]butyl]-4,4-dimethyl-2,4-dihydro-pyrazol-3-one]	≥ 90%	++ (80%≧inhibition rate≧60%)	–
< 0.01 µmol/L	0.01 to 0.1 µmol/L	CCc1ccc2c(C3=NN(CCCCOc4ccc(C5=NNC(=O)CC5C)cc4F)C(=O)C3(C)C)ccc(OC)c2n1 (stereo not shown) [Example 205, 5-(2-Ethyl-8-methoxyquinolin-5-yl)-2-[4-[2-fluoro-4-(4-methyl-6-oxo-1,4,5,6-tetrahydropyridazin-3-yl)phenoxy]butyl]-4,4-dimethyl-2,4-dihydro-pyrazol-3-one]	≥ 90%	–	+++ (inhibition rate≧80%)
< 0.01 µmol/L	0.01 to 0.1 µmol/L	CCc1ccc2c(C3=NN(CCCCOc4ccc(C5=NNC(=O)CC5C)c(F)c4F)C(=O)C3(C)C)ccc(OC)c2n1 (single isomer, unassigned; (+)) [Example 210, (+)-5-(2-Ethyl-8-methoxyquinolin-5-yl)-2-[4-[2,3-difluoro-4-(4-methyl-6-oxo-1,4,5,6-tetrahydropyridazin-3-yl)phenoxy]butyl]-4,4-dimethyl-2,4-dihydro-pyrazol-3-one]	–	+ (60%>inhibition rate≧40%)	–
